Data from patent US20050244906A1, “Detection kit, assay plate to be used therein, detection method, evaluation method, polyclonal antibody of frog vitellogenin and process for producing the same” (priority 2002, published 2005).
Like-named read-outs stand apart in the source and are kept apart here.

Key:
[1] = tested on: hepatocyte in primary culture of an adult male Xenopus laevis; assay type: cell-based
Source text: Furthermore, by use of the assay system, the antagonist activity of a target substance could be evaluated.

[2] = tested on: adult male Xenopus laevis; assay: Injection method in adult male Xenopus laevis; vitellogenin quantified by ELISA sandwich method; assay type: in vivo
Experimental: Adult male Xenopus laevis same in the age as A were used. Five thereof in which an E2 solution was injected by means of injection (experimental group) and another five thereof in which propylene glycol that was a solvent was injected by use of an injection by substantially 200 μl (comparative group) were bred in a glass water bath filled with 20 L of dechlorinated tap water. Exposure concentrations of E2 were five levels of 0.002 μg/g BW, 0.02 μg/g BW, 0.2 μg/g BW, 2 μg/g BW and 20 μg/g BW, and, during a breeding period of 7 days, reinjection was once (at 3.5 days) applied. A water temperature was set at 22 degrees centigrade, bright and dark periods each were set at 12 hr, and during a test period bait was not fed. At the injection, individual organisms were measured of weight and substantially 200 μl of the E2 solution was injected so as to be a set concentration. At the detection of the vitellogenin, two samples of a blood serum and a liver homogenate were used and compared to study. A. Sampling of Blood Serum 1. To an abdominal cavity of a frog, 0.5 to 1.0 ml of an anesthetic agent (20 mg/ml aminobenzoic acid ethyl ester) was injected. 2. An operation was performed, and 0.2 ml of blood was sampled from a pulsating heart with a syringe in a tube and placed on ice. 3. […] The diluted sample was quantified of the vitellogenin according to the ELISA sandwich method.

[3] = tested on: adult male Xenopus laevis; assay: Exposure in water of adult male Xenopus laevis; vitellogenin quantified by ELISA sandwich method; assay type: in vivo
Experimental: Adult male Xenopus laevis of same age (two years and half old) were used. Every five thereof were bred in each of a water bath where one in which in 20 L of dechlorinated tap water E2 dissolved in DMSO was added was filled (experimental group) and a water bath where one in which in 20L of dechlorinated tap water the same amount of DMSO that is a solvent was added is filled (comparative group). Exposure concentrations of the E2 were five levels of 0.1 nM, 1 nM, 10 nM, 100 nM and 1000 nM, and, at 3.5 days during a breeding period of 7 days, the breeding water was once exchanged. A water temperature was set at 22 degrees centigrade, bright and dark periods each were set at 12 hr, and during a test period bait was not fed.
At the detection of the vitellogenin, two samples of a blood serum and a liver homogenate were used and compared to study.
A. Sampling of Blood Serum
1. To an abdominal cavity of a frog, 0.5 to 1.0 ml of an anesthetic agent (20 mg/ml aminobenzoic acid ethyl ester) was injected.
2. An operation was performed, and 0.2 ml of blood was sampled from a pulsating heart with a syringe in a tube and placed on ice.
3. A centrifugal process was applied at 15000 rpm, at 4 degrees centigrade for 10 min, followed by sampling a supernatant.
4. Dilution was applied at a factor of 10 with a 20 mM of an EDTA-0.2 percent Tween 20-PBS solution followed by refrigerating and preserving (in the case of long preservation, by freezing and preserving).
The diluted sample was quantified of the vitellogenin according to the ELISA sandwich method.
1. After the sampling of blood, a liver piece was cut to substantially 0.05 to 0.1 g followed by weighing.
2. In a tube where the liver piece put, 1 ml of 20 mM EDTA-0.5% Tween 20-PBS solution was added.
3. The liver was homogenized over ice.
4. A centrifugal process was applied at 15000 rpm, at 4 degrees centigrade for 10 min, followed by sampling a supernatant, further followed by refrigerating and preserving (in the case of long preservation, by freezing and preserving).
The diluted sample was quantified of the vitellogenin by ELISA sandwich.

[4] = tested on: hepatocyte in primary culture of an adult male Xenopus laevis; assay: VTG synthesis induction in primary hepatocyte culture, VTG in culture liquid by ELISA; assay type: cell-based; conditions: for estrogenic activity detected, equivalent E2 concentration: primary hepatocyte culture
Experimental: • 10×perfusate (0.14% KCl, 5.5% NaCl, 0.44% pyruvate, 1% glucose, 2.38% HEPES, 5% BSA and 0.2% NaHCO3) • Collagenase perfusate (1×perfusate is controlled to pH 7.2 to 7.5 with phenol red to prepare a solution of 0.1% collagenase. Filtration and sterilization) • Culture liquid (50% L-15, 1 μg/ml insulin, 0.5% glucose and antibiotics) B: Sampling Method of Hepatocyte […] A frog is sterilized in potassium permanganate (5 mg/ml) for 2 hr or more (superficial skin color becomes brown). 2. An anesthetic (20 mg/ml-aminobenzoic acid ethylester) is injected by 0.5 to 1.0 ml to an abdominal cavity. 3. A ventral skin is thoroughly sterilized with a cotton bud wetted with alcohol, followed by operating. 4. A heart is exposed, a syringe is inserted from a cardiac chamber, and a collagenase perfusate is sent in through a hepatic vein by use of a […] pump to perfuse a liver. 5. The liver is taken out and transferred in a beaker, followed by cutting small with a pair of scissors. 6. Transferring into an L-tube together with a small amount of collagenase perfusate. 7. Shaking for 30 to 60 min in an incubator at 24 degrees centigrade. 8. Suspending thoroughly with a pipette, followed by filtering through a nylon mesh. 9. A slight amount of culture liquid is added, followed by centrifuging at 300 rpm for 1 to 2 min. […] A centrifugal supernatant is sucked and removed, followed by centrifuging a culture liquid once more (this operation is repeated twice). 11. […] 12. Seeding every 100 to 300 μl to a microplate (substantially 20,000 pieces/well is better). 13. Cultivating in an incubator at 24 degrees centigrade. […] In the case of the E2 processing, it is known that from the third day on after the processing vitellogenin can be detected in the culture liquid; however, since survived hepatocytes in culture are stable for three weeks, for the test of a substance low in the activity, evaluation is carried out for a longer period. As one of applications of the ELISA KIT, an application to the quantification of VTG concentration in a liquid Xenopus laevis hepatocyte culture was studied as well. […] Of a culture liquid after 6 days from the start of culturing (exchanged on the third day), the quantification of the VTG concentration was carried out with the ELISA KIT. By combining the exposure test to hepatocytes in primary culture and the ELISA, an application to a quantitative screening method of the estrogen activity of various chemicals was studied. […] According to a method similar to (Example 2-2), primary cultured hepatocytes of an adult male Xenopus laevis were prepared, followed by culturing in a culture liquid containing one of the chemicals, and with a culture liquid after 6 days, according to the ELISA, a VTG concentration in the culture liquid was quantified.

CC(C)(c1ccc(O)cc1)c1ccc(O)cc1 [BPA, bisphenol A]
antagonist activity on VTG synthesis induction due to 5 nM E2 ([1]; co-culture with 5 nM E2, increasing concentration of added chemical): antagonistic activity was exhibited

C[C@]12CC[C@@H]3c4ccc(O)cc4CC[C@H]3[C@@H]1CC[C@@H]2O [E2, 17β-estradiol]
dose dependence of vitellogenin response [2]: increased dependent on an administered amount
production quantity of the vitellogenin ([2]; at 73 nM (assumed uniform diffusion in body)): ~14000 μg/ml
E2 concentration at which blood plasma VTG / VTG synthesis induction can be detected with the ELISA KIT ([3]; exposure in water for 7 days, adult male, ELISA KIT): ≥ 1 nM
vitellogenin response at 100 nM ([3]; exposure in water, 7 days, 100 nM): obviously rose high
vitellogenin synthesis at 1000 nM ([3]; exposure in water, 7 days, 1000 nM): does not increase
E2 concentration from which vitellogenin response was observed ([3]; exposure in water, 7 days, adult male): ≥ 10 nM
concentration range of abrupt rise of vitellogenin ([3]; exposure method in water): 10 to 100 nM
production quantity of the vitellogenin ([3]; exposure method in water, 100 nM): ~13000 μg/ml
concentration at which vitellogenin synthesis reaches the maximum ([4]; cultivated hepatocyte): lower than 1000 nM
exposure concentration giving significant concentration-dependent increase in vitellogenin concentration ([4]; hepatocyte in culture, culture liquid, ELISA): ≥ 0.6 nM
estrogenic activity detected, equivalent E2 concentration ([4]; ELISA KIT): ~0.1 nM
estrogenic activity detected, equivalent E2 concentration ([4]; ELISA with biotinylated antibody): ~0.03 nM

nonylphenol [NP]
antagonist activity on VTG synthesis induction due to 5 nM E2 [1]: antagonistic activity was exhibited
